This is an account of results in patent US20220047548A1, “SYNERGISTIC COMPOSITIONS COMPRISING (R)-2-(2-OXOPYRROLIDIN-1-YL)BUTANAMIDE AND (S)-2-(2-e OXOPYRROLEDIN-1-YL)BUTANAMEDE IN A NON-RACEMIC RATIO” (Metys Pharmaceuticals AG, priority 2018, published 2022).

Marks after values point to notes of the source that are not given here.

Experiment [1] has as its system PTZ-induced kindling in mice. In words: PTZ-induced kindling test in mice (tonic and clonic convulsions kindled by once-daily pentylenetetrazole). In kind it is in vivo, mice (adult male CD1). Conditions: for antiepileptic effect in comparison experiment (in words): Tab. 2 comparison. On the procedure:
Adult male CD1 mice (Envigo, Italy 20-25 g weight at arrival), were used. The cages were brought into the experimental room the day before the experiment, for acclimatization purposes. Each treatment group consisted of 15 mice. Mice were fed a standard laboratory diet. Food and water were freely available. Room temperature and relative humidity were constantly kept at 22±2° C. and 55±15%, respectively, and a 12-hour light and 12-hour darkness cycles maintained.
Levetiracetam (batch P102-14050 supplied by Astatech), etiracetam (supplied by Shaanxi Swiden Biotech Co., Ltd. Catalog number E932970), or mixtures of 1 part levetiracetam and 1 part etiracetam (1-to-3 R-to-S-etiracetam), or of 1 part levetiracetam and 0.5 part etiracetam (1-to-5 R-to-S-etiracetam), were dissolved in 1% carboxymethylcellulose (CMC) solution at a formulation strength of 55 mg/mL and orally administered once per day. Compounds were administered every day, from day 1 to day 11, 60 min before PTZ (55 mg/kg i.p.). PTZ was dissolved in saline; following i.p. injection, seizures developed in vehicle-treated mice within about 20 minutes.
The test was performed according to Gower et al. (Eur. J. Pharmacol. 222, 1992, 193-203). Separate groups of male mice were administered orally once daily for 11 consecutive days with levetiracetam (10, 30, or 60 mg/kg p.o.); etiracetam (30 mg/kg p.o.); or 1-to-3 R-to-S-etiracetam (30 mg/kg p.o.); or 1-to-5 R-to-S-etiracetam, (30 mg/kg p.o.); or oral vehicle, 60 min prior to administration of PTZ (pentylenetetrazole, 55.0 mg/kg i.p.). Immediately after the PTZ injection, the mice were placed in individual cages and observed for tonic and clonic seizures.
A chi-square test was used to verify significance between two means of behavioral results. Data were analyzed by the Social Science Statistics Program. P values ≤0.05 were considered significant (link https://www.socscistatistics.com/tests/chisquare/default2.aspx).

For experiment [2], the system named is electroshock-induced amnesia. Conditions: sub-cutaneous injection; rat; cited from earlier work.
The mark [3] stands for this setting: Table 2 comparison, 30 mg/kg p.o. once daily 60 min before PTZ 55 mg/kg i.p., Day 1.
Where [4] appears, read: Table 2 comparison, 30 mg/kg p.o. once daily 60 min before PTZ 55 mg/kg i.p., Day 2.
The mark [5] stands for this setting: Table 2 comparison, 30 mg/kg p.o. once daily 60 min before PTZ 55 mg/kg i.p., Day 3.
Where [6] appears, read: Table 2 comparison, 30 mg/kg p.o. once daily 60 min before PTZ 55 mg/kg i.p., Day 4.
Setting [7] is: Table 2 comparison, 30 mg/kg p.o. once daily 60 min before PTZ 55 mg/kg i.p., Day 5.
The mark [8] stands for this setting: Table 2 comparison, 30 mg/kg p.o. once daily 60 min before PTZ 55 mg/kg i.p., Day 6.
[9] abbreviates: Table 2 comparison, 30 mg/kg p.o. once daily 60 min before PTZ 55 mg/kg i.p., Day 7.
[10] abbreviates: Table 2 comparison, 30 mg/kg p.o. once daily 60 min before PTZ 55 mg/kg i.p., Day 8.
The mark [11] stands for this setting: Table 2 comparison, 30 mg/kg p.o. once daily 60 min before PTZ 55 mg/kg i.p., Day 9.
Where [12] appears, read: Table 2 comparison, 30 mg/kg p.o. once daily 60 min before PTZ 55 mg/kg i.p., Day 10.
The mark [13] stands for this setting: Table 2 comparison, 30 mg/kg p.o. once daily 60 min before PTZ 55 mg/kg i.p., Day 11.

On to `CCC(C(N)=O)N1CCCC1=O` (racemic) [etiracetam, 2-(2-oxopyrrolidin-1-yl)butanamide], for which the “antiepileptic effect in comparison experiment (in words)” value in experiment [1] (30 mg/kg p.o.) is given as “ineffective”. The “percentage of mice per group with clonic convulsions” value (from here on “percentage of mice per group”) is reported as 0% in experiment [1] (setting [3]); 6.6% in experiment [1] (setting [4]); 13.3% in experiment [1] (setting [5]); 26.6% in experiment [1] (setting [6]); 26.6% in experiment [1] (setting [7]); 46.6% in experiment [1] (setting [8]). Further, the “percentage of mice per group” value in experiment [1] (setting [9]) was 53.3%; in experiment [1] (setting [10]), 66.6%; in experiment [1] (setting [11]), 86.6%; in experiment [1] (setting [12]) it was 93.3%; in experiment [1] (setting [13]) it was 100%.
Regarding `CC[C@H](C(N)=O)N1CCCC1=O` [R-etiracetam, (R)-2-(2-oxopyrrolidin-1-yl)butanamide], the “potency relative to racemic etiracetam” value in experiment [2] is 10 fold.
In the case of `CC[C@@H](C(N)=O)N1CCCC1=O` [levetiracetam, (S)-2-(2-oxopyrrolidin-1-yl)butanamide], the “effect on PTZ-induced kindling (in words)” value in experiment [1] (10 mg/kg p.o., at the end of the treatment (day 11)) is on record as “all mice showed tonic or clonic convulsions”; in experiment [1] (30 mg/kg p.o., dose-response experiment (Tab. 1)), “intermediate reduction of the effect”. The “antiepileptic effect in comparison experiment (in words)” value in experiment [1] (30 mg/kg p.o.) is given as “moderately effective”. Moreover, the “incidence of clonic convulsion in the first 6 days” value in experiment [1] (60 mg/kg p.o. once daily, days 1-6) was at most 20%. Also, the “effect on PTZ-induced kindling vs vehicle treatment group (in words)” value in experiment [1] (60 mg/kg p.o., eighth to eleventh day of treatment) is “statistically significant difference in the proportion of mice exhibiting seizures”. The “percentage of mice per group” value in experiment [1] (Table 1, 10 mg/kg p.o. once daily 60 min before PTZ 55 mg/kg i.p., Day 1) is given as 6.6%; in experiment [1] (Table 1, 10 mg/kg p.o. once daily 60 min before PTZ 55 mg/kg i.p., Day 2) it was 6.6%; in experiment [1] (Table 1, 10 mg/kg p.o. once daily 60 min before PTZ 55 mg/kg i.p., Day 3), 20.0%; in experiment [1] (Table 1, 10 mg/kg p.o. once daily 60 min before PTZ 55 mg/kg i.p., Day 4), 26.6%; in experiment [1] (Table 1, 10 mg/kg p.o. once daily 60 min before PTZ 55 mg/kg i.p., Day 5), 26.6%; in experiment [1] (Table 1, 10 mg/kg p.o. once daily 60 min before PTZ 55 mg/kg i.p., Day 6), 53.0%. Also, the “percentage of mice per group” value in experiment [1] (Table 1, 10 mg/kg p.o. once daily 60 min before PTZ 55 mg/kg i.p., Day 7) is 53.3%; in experiment [1] (Table 1, 10 mg/kg p.o. once daily 60 min before PTZ 55 mg/kg i.p., Day 8) it was 73.3%; in experiment [1] (Table 1, 10 mg/kg p.o. once daily 60 min before PTZ 55 mg/kg i.p., Day 9), 86.6%; in experiment [1] (Table 1, 10 mg/kg p.o. once daily 60 min before PTZ 55 mg/kg i.p., Day 10), 86.6%; in experiment [1] (Table 1, 10 mg/kg p.o. once daily 60 min before PTZ 55 mg/kg i.p., Day 11), 100%; in experiment [1] (Table 1, 30 mg/kg p.o. once daily 60 min before PTZ 55 mg/kg i.p., Day 1), 0%. For the same compound, the “percentage of mice per group” value amounted to 6.6% in experiment [1] (Table 1, 30 mg/kg p.o. once daily 60 min before PTZ 55 mg/kg i.p., Day 2); 13.3% in experiment [1] (Table 1, 30 mg/kg p.o. once daily 60 min before PTZ 55 mg/kg i.p., Day 3); 20.0% in experiment [1] (Table 1, 30 mg/kg p.o. once daily 60 min before PTZ 55 mg/kg i.p., Day 4); 20.0% in experiment [1] (Table 1, 30 mg/kg p.o. once daily 60 min before PTZ 55 mg/kg i.p., Day 5); 26.6% in experiment [1] (Table 1, 30 mg/kg p.o. once daily 60 min before PTZ 55 mg/kg i.p., Day 6); 33.3% in experiment [1] (Table 1, 30 mg/kg p.o. once daily 60 min before PTZ 55 mg/kg i.p., Day 7). In addition, the “percentage of mice per group” value in experiment [1] (Table 1, 30 mg/kg p.o. once daily 60 min before PTZ 55 mg/kg i.p., Day 8) was 46.6%; in experiment [1] (Table 1, 30 mg/kg p.o. once daily 60 min before PTZ 55 mg/kg i.p., Day 9) it was 66.6%; in experiment [1] (Table 1, 30 mg/kg p.o. once daily 60 min before PTZ 55 mg/kg i.p., Day 10), 66.6%; in experiment [1] (Table 1, 30 mg/kg p.o. once daily 60 min before PTZ 55 mg/kg i.p., Day 11), 73.3%; in experiment [1] (Table 1, 60 mg/kg p.o. once daily 60 min before PTZ 55 mg/kg i.p., Day 1), 0%; in experiment [1] (Table 1, 60 mg/kg p.o. once daily 60 min before PTZ 55 mg/kg i.p., Day 2) it was 0%. The “percentage of mice per group” value is listed as 6.6% in experiment [1] (Table 1, 60 mg/kg p.o. once daily 60 min before PTZ 55 mg/kg i.p., Day 3); 20.0% in experiment [1] (Table 1, 60 mg/kg p.o. once daily 60 min before PTZ 55 mg/kg i.p., Day 4); 20.0% in experiment [1] (Table 1, 60 mg/kg p.o. once daily 60 min before PTZ 55 mg/kg i.p., Day 5); 20.0% in experiment [1] (Table 1, 60 mg/kg p.o. once daily 60 min before PTZ 55 mg/kg i.p., Day 6); 26.6% in experiment [1] (Table 1, 60 mg/kg p.o. once daily 60 min before PTZ 55 mg/kg i.p., Day 7); 26.6^# % in experiment [1] (Table 1, 60 mg/kg p.o. once daily 60 min before PTZ 55 mg/kg i.p., Day 8). Also, the “percentage of mice per group” value in experiment [1] (Table 1, 60 mg/kg p.o. once daily 60 min before PTZ 55 mg/kg i.p., Day 9) is 33.3^# %; in experiment [1] (Table 1, 60 mg/kg p.o. once daily 60 min before PTZ 55 mg/kg i.p., Day 10) it was 33.3^# %; in experiment [1] (Table 1, 60 mg/kg p.o. once daily 60 min before PTZ 55 mg/kg i.p., Day 11) it was 40%; in experiment [1] (setting [3]) it was 0%; in experiment [1] (setting [4]), 0%; in experiment [1] (setting [5]), 6.6%. The “percentage of mice per group” value in experiment [1] (setting [6]) is on record as 13.3%; in experiment [1] (setting [7]) it was 20.0%; in experiment [1] (setting [8]), 26.6%; in experiment [1] (setting [9]) it was 33.3%; in experiment [1] (setting [10]) it was 46.6%; in experiment [1] (setting [11]) it was 66.6%. Besides, the “percentage of mice per group” value in experiment [1] (setting [12]) and in experiment [1] (setting [13]) was 73.3% each time.
